Measurements published in patent US20160113931A1, “Method of treating and/or preventing neurodegenerative diseases” (University of Macau, priority 2014, published 2016).
“Also recorded” adds a separate entry of the source.

Key:
SH-SY5Y cells [1] = experiment: MPP+-induced mitochondrial membrane potential loss (JC-1 assay); assay type: cell-based, human; details: 2 h pre-treatment; for mitochondrial membrane potential (Δφm) compared to the control group: 2 mM MPP+, MPP+ alone 51%
Experimental: (FIG. 6A) Δψm was determined by the JC-1 assay.
JC-1 dye was used to monitor mitochondrial integrity. In brief, SH-SY5Y cells were seeded into black 96-well plates (5×10^3 cells/well). After treatment, the cells were incubated with JC-1 (10 μg/mL in medium) at 37° C. for 15 min and then washed twice with PBS. For signal quantification, the intensity of red fluorescence (excitation 560 nm, emission 595 nm) and green fluorescence (excitation 485 nm, emission 535 nm) were determined using a SpectraMax M5. Mitochondrial membrane potential (Δφm) was calculated as the ratio of JC-1 red/green fluorescence intensity and the value was normalized to the control group.
Loss of mitochondrial membrane potential and apoptotic nuclei were hallmarks for early and late stage of apoptosis. To determine whether BHDPC could reduce MPP^+-induced mitochondrial membrane potential (Δφm) loss, the Δφm in SH-SY5Y cells was assessed by analyzing the red/green fluorescent intensity ratio of JC-1 staining (FIG. 6A).

[2] = test system: PKA/CREB/Bcl2 signaling pathway; experiment: Western blotting of phosphorylated PKA, phosphorylated CREB and Bcl2 in SH-SY5Y cells; assay type: cell-based, human
Experimental: Cells were pre-treated with 30 μM BHDPC for 2 h.
Cells were pre-treated with BHDPC (3, 10 and 30 μM) for 2 h and then were collected at 120 min. […] The expression ratios of phosphorylated PKA, phosphorylated CREB and Bcl2 proteins as detected by Western blotting with specific antibodies were shown in FIGS. 8B, 8C and 8D respectively.
After treatment, SH-SY5Y cells were collected and washed three times with ice-cold PBS. Then the harvested cells were lysed on ice for 30 min in RIPA lysis buffer containing 1% PMSF and 1% Protease Inhibitor Cocktail and centrifuged at 12,500×g for 20 min at 4° C. The supernatant was collected and protein concentrations were determined using the BCA protein assay kit (Thermo Scientific Pierce). Aliquots of protein samples (30 μg) were boiled for 5 min at 95° C. and electrophoresed on SDS-PAGE (10% (w/v) polyacrylamide gel) and then transferred to a polyvinylidene difluoride (PVDF) membrane (Bio-Rad, Hercules, Calif.). Subsequently, the membrane was blocked with 5% (w/v) non-fat milk in PBST (PBS containing 0.1% Tween-20) for 2 h at room temperature. The blots were incubated overnight at 4° C. with primary antibodies. After washed with PBST for 20 min at room temperature, the membranes were further incubated with horseradish peroxidase-conjugated secondary antibodies for 2 h at room temperature. Finally, protein bands were visualized using an ECL plus Western blotting detection reagents (GE Healthcare, Piscataway, N.J., USA). The membranes were then scanned on a Bio-Rad ChemiDoc XRS Imaging System and the intensity of the protein bands were analyzed using the Bio-Rad Quantity One Software (4.5.2).
To determine which survival signaling pathway is regulated by BHDPC, SH-SY5Y cells were pre-treated with 30 μM BHDPC for 2 h, and then the phosphorylation of PKA at […] were examined by Western blot analysis. […] The inventors also determined whether BHDPC affected the phosphorylation of CREB. […] Bcl2 is a well-known anti-apoptotic protein. The inventors determined whether BHDPC affected the expression of Bcl2.

SH-SY5Y cells [3] = experiment: Effect of PKA inhibitor H89 on BHDPC neuroprotection under MPP+ cytotoxicity; assay type: cell-based, human; details: with H89
Text: To further confirm the involvement of PKA activation in the protective effects of BHDPC, H89, a PKA inhibitor was used to measure cell survival under MPP^+ cytotoxicity (FIG. 9).

[4] = test system: cerebellar granule neurons (CGNs); experiment: MPP+-induced neurotoxicity in primary cerebellar granule neurons (MTT assay); assay type: cell-based, mice; details: 10 and 30 μM, 2 h pre-treatment, 40 μM MPP+ 24 h
Experimental: Cerebellar tissue slice were treated with 30 μM BHDPC with or without MPP^+ for 72 h and then were stained with PI.
The percentage of surviving cells was estimated by determining the activity of mitochondrial dehydrogenases with 3(4,5-dimethylthiazol-2-yl)-2,5-diphenyltetrazolium bromide (MTT) assay. After drug treatment, cells were incubated at 37° C. for 4 h in 0.5 mg/mL MTT solution. The medium was then removed, and 100 μL of DMSO was added to each well to dissolve the violet formazan crystals. The absorbance of the samples was measured at a wavelength of 570 nm with 655 nm as a reference wavelength. All values were normalized to the control groups.
Rat CGNs were prepared from 8-day-old Sprague-Dawley rats (The Animal Care Facility, The Hong Kong Polytechnic University) as described in our previous publication. Briefly, neurons were seeded at a density of 2.7×10^5 cells/ml in basal modified Eagle's medium (Invitrogen) containing 10% fetal bovine serum, 25 mM KCl, 2 mM glutamine, and penicillin (100 units/ml)/streptomycin (100 μg/ml). […]
To further confirm the effect of BHDPC on primary neurons, mice cerebellar granule neurons were treated with BHDPC at the indicated concentrations for 2 hours and then exposed to 40 μM MPP^+. Cell viability was measured by the MTT assay at 24 hours after the MPP^+ challenge.

COc1cc(C2C(C(=O)OCc3ccccc3)=C(C)Nc3nnnn32)ccc1O (stereo not shown) [BHDPC, benzyl 7-(4-hydroxy-3-methoxyphenyl)-5-methyl-4,7-dihydrotetrazolo[1,5-a]pyrimidine-6-carboxylate]
mitochondrial membrane potential (Δφm) compared to the control group (SH-SY5Y cells [1]; 3 μM): 53%
mitochondrial membrane potential (Δφm) compared to the control group (SH-SY5Y cells [1]; 10 μM): 64%
MPP+-induced mitochondrial membrane potential (Δψm) loss, in words (SH-SY5Y cells [1]; 30 μM, 2 mM MPP+ 36 h): attenuated
mitochondrial membrane potential (Δφm) compared to the control group (SH-SY5Y cells [1]; 30 μM): 75%
phosphorylation intensity of PKA, time course ([2]; 30 μM, 0 to 120 min, particularly at 90 and 120 min): gradually increased; also recorded: activated PKA signaling pathway
expression of Bcl2, dose-dependent ([2]; 3, 10 and 30 μM, 2 h): up-regulated
phosphorylation intensity of CREB, dose-dependent ([2]; 3, 10 and 30 μM, 2 h): increased
phosphorylation intensity of PKA, dose-dependent ([2]; 3, 10 and 30 μM, 2 h): increased
neuroprotective effect of BHDPC in presence of PKA inhibitor H89 (SH-SY5Y cells [3]): abolished
MPP+-induced neuronal death (cell viability, MTT) [4]: reduced MPP^+-induced dopaminergic neuronal death; also recorded: prevented MPP^+-induced neuronal death
